According to patent publication US20250177364A1, “COMBINATION THERAPIES FOR BREAST CANCER” (Genentech, Inc., priority 2022, published 2025):

What was measured:
HCC1419 cells = experiment: Anti-proliferative activity, growth-rate (GR) inhibition method, CyQUANT; format: cell-based; conditions: 6 days after drug treatment, control GR=1, giredestrant 0.3 μM, trastuzumab and pertuzumab 30 μg/ml each
Method: (§1) FIG. 3 depicts in vitro anti-proliferative activity of ER inhibition by giredestrant, and/or HER2 inhibition by the combination of trastuzumab and pertuzumab, assessed using the growth rate (GR) method in Example 1. Growth rate (GR) under control conditions is set to 1; lower growth rates equate to a greater anti-proliferative effect. Individual points reflect GR values at 0.3 μM giredestrant, and at […] trastuzumab and pertuzumab. Materials and Methods: ER+/HER2+ cell lines UACC-812, HCC1419 and ZR-75-30 cells were plated in 50 μL culture media in 384-well plates. Cells were incubated in humidified incubator overnight (37 degree, 5% CO2). Test materials were dispensed into 384-well plate on day 1; giredestrant was evaluated as a 9-point dose response (3-fold dose dilutions from a maximum concentration of 300 nM), and traztuzumab and pertuzumab were evaluated as a fixed dose at 30 μg/ml each. Fluorescence-based cell proliferation (CyQUANT®; ThermoFisher Scientific, Cat #C7026) readings were taken at day 1 to establish a baseline, and at 6 days following drug treatment. Analysis of the drug response was performed using the growth-rate (GR) inhibition method to avoid biases between slow and fast-growing lines (Hafner et al., Nat Methods 2016 June; 13 (6): 521-7)).

UACC-812 cells = experiment: as above; format: cell-based; conditions: 6 days after drug treatment, control GR=1, giredestrant 0.3 μM, trastuzumab and pertuzumab 30 μg/ml each
Method: as §1

ZR-75-30 cells = experiment: as above; format: cell-based; conditions: 6 days after drug treatment, control GR=1, giredestrant 0.3 μM, trastuzumab and pertuzumab 30 μg/ml each
Method: FIG. 3 depicts in vitro anti-proliferative activity of ER inhibition by giredestrant, and/or HER2 inhibition by the combination of trastuzumab and pertuzumab, assessed using the growth rate (GR) method in Example 1. Growth rate (GR) under control conditions is set to 1; lower growth rates equate to a greater anti-proliferative effect. Individual points reflect GR values at 0.3 μM giredestrant, and at […] trastuzumab and pertuzumab.
Materials and Methods: ER+/HER2+ cell lines UACC-812, HCC1419 and ZR-75-30 cells were plated in 50 μL culture media in 384-well plates. Cells were incubated in humidified incubator overnight (37 degree, 5% CO2). Test materials were dispensed into 384-well plate on day 1; giredestrant was evaluated as a 9-point dose response (3-fold dose dilutions from a maximum concentration of 300 nM), and traztuzumab and pertuzumab were evaluated as a fixed dose at 30 μg/ml each. Fluorescence-based cell proliferation (CyQUANT®; ThermoFisher Scientific, Cat #C7026) readings were taken at day 1 to establish a baseline, and at 6 days following drug treatment. Analysis of the drug response was performed using the growth-rate (GR) inhibition method to avoid biases between slow and fast-growing lines (Hafner et al., Nat Methods 2016 June; 13 (6): 521-7)). […]

[1] = system: ER (ligand-binding domain of wild-type and mutant ER); conditions: cited from earlier work
[2] = system: ER-positive BC cell lines; conditions: multiple ER-positive BC cell lines, including cells with ER mutations; cited from earlier work
[3] = system: ER-positive, HER2-negative ABC; conditions: 30 mg daily; previously treated patients; cited from earlier work
[4] = system: ER-positive, HER2-negative EBC; conditions: neoadjuvant; cited from earlier work

C[C@@H]1Cc2c([nH]c3ccccc23)[C@@H](c2c(F)cc(NC3CN(CCCF)C3)cc2F)N1CC(F)(F)CO [giredestrant, 3-((1R,3R)-1-(2,6-difluoro-4-((1-(3-fluoropropyl)azetidin-3-yl)amino)phenyl)-3-methyl-1,3,4,9-tetrahydro-2H-pyrido[3,4-b]indol-2-yl)-2,2-difluoropropan-1-ol]
Growth rate (GR) value (HCC1419 cells): < 0.5 | Growth rate (GR) value (UACC-812 cells): < 0.5 | Growth rate (GR) value (ZR-75-30 cells): > 0.75 | Potency compared to fulvestrant, tamoxifen and other oral SERDs ([1]; Liang et al.): higher potency | Potency of competitive binding to the ER ([1]; competes with estrogens): low nanomolar potency | Inhibition of proliferation [2]: potently inhibits | Clinical activity [3]: promising signs of clinical activity | Safety [3]: safe | Ki67 suppression and complete cell cycle arrest versus anastrozole [4]: superior to anastrozole
